In PubChem BioAssay (NCI):
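Each compound was tested at five concentrations against cells in 96-well plates for 48 hours. GI50: concentration for 50% inhibition of growth. TGI denotes the concentration required for complete inhibition of growth.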

Experiments:
Assay in all cases: growth of human tumour cells (NCI), 48 h
[1] = test system: 786-0 renal
[2] = test system: SR leukemia
[3] = test system: HCT-15 colon
[4] = test system: SK-OV-3 ovarian
[5] = test system: IGROV1 ovarian
[6] = test system: M14 melanoma
[7] = test system: CCRF-CEM leukemia
[8] = test system: RPMI-8226 leukemia
[9] = test system: OVCAR-5 ovarian
[10] = test system: SNB-75 CNS

Structure (SMILES)	GI50 [1] [µM]	TGI [1] [µM]	GI50 [2] [µM]	TGI [2] [µM]	GI50 [3] [µM]	TGI [3] [µM]	GI50 [4] [µM]	TGI [4] [µM]	GI50 [5] [µM]	TGI [5] [µM]	GI50 [6] [µM]	TGI [6] [µM]	GI50 [7] [µM]	TGI [7] [µM]	GI50 [8] [µM]	TGI [8] [µM]	GI50 [9] [µM]	TGI [9] [µM]	GI50 [10] [µM]	TGI [10] [µM]
CC(CO)Nc1cc(-c2[nH]c3cccnc3c2-c2ccc(F)cc2)ccn1 (stereo not given)	18.6	> 25	17	> 25	10.4	> 25	15	> 25	6.77	> 25	> 25	> 25	> 25	> 25	17	> 25	22.8	> 25	14.8	> 25
CCOc1ccccc1CCN=C1NC(=O)/C(=C/c2ccc3ncccc3c2)S1	1.93	> 14.3	0.146	3.04	0.777	> 25	1.81	8.46	1.47	15	2.17	10.4	1.05	7.12	1.02	8.38	3.09	15.8	0.536	7.79
COc1cc(C)ccc1C(=O)c1ccc(C)cc1OC	6.29	> 100	0.567	> 100	1.1	> 100	2.66	14.1	6.58	> 100	1.32	> 100	5.57	> 100	3.7	27.7	7.02	> 100	3.25	> 100
CN(C)c1cc2ccccc2oc1=O	–	> 100	–	> 100	–	> 100	–	–	–	> 100	–	> 100	–	> 100	–	> 100	–	> 100	–	> 100
CCN1C(=O)N(CC)C2C1NN=c1s/c(=C\c3ccc(Cl)cc3Cl)c(=O)n12 (stereo not given)	0.0509	> 48.8	0.0319	> 24.8	0.035	> 100	0.0448	> 100	0.0437	> 44.4	0.0304	–	0.0361	> 100	0.0391	7.25	0.0547	> 81.5	0.0258	0.971
C/C(CC(O)(C(F)(F)F)C(F)(F)F)=N\NC(N)=O	–	> 10	–	> 10	–	> 10	–	> 10	–	> 10	–	> 10	–	> 10	–	> 10	–	–	–	> 10
O=S(=O)(Nc1ccc(Br)cc1)c1ccc(-c2cnc(C3CC3)o2)cc1	5.34	20.1	0.349	16.5	0.644	14.2	2.49	14.3	2.57	15.8	1.41	16.1	2.14	16.2	2.62	14.5	4.55	17.1	0.518	3.35
COC(=O)C1=C(O)C(C(=O)OC)C2CC(=O)CC1C2(C)C (stereo not given)	–	> 100	–	> 100	–	> 100	–	> 100	–	> 100	–	> 100	–	> 100	–	> 100	–	> 100	–	> 100
C=C1CCC2C3(C)COC(C)(C)OC3CCC2(C)C1C/C=C1/C(=O)OCC1OC(C)=O (stereo not given)	2.89	8.05	2.37	9.03	1.61	4.19	12.5	25.7	2.03	6.84	1.77	3.78	1.81	11.5	2.24	7.49	3.78	11.2	5.23	16.5
Cc1c2cnccc2c(C)c2c1c1cc(C#N)ccc1n2C	0.235	1.3	0.0588	3.06	0.0966	0.85	0.245	0.92	0.14	1.1	0.232	0.654	0.249	2.83	0.202	0.907	0.262	1.47	0.179	0.966
C=C(c1ccccc1)C1(O)CCCCC1N (stereo not given)	–	> 100	–	72.8	–	> 100	–	> 100	–	> 100	–	> 100	–	95.3	–	> 100	–	> 100	–	> 100
Cn1ccnc1CCc1c(Cl)cccc1Cl	–	> 100	–	> 100	–	> 100	–	> 100	–	> 100	–	> 100	–	> 100	–	> 100	–	> 100	–	> 100
COc1cc(Cl)cc(=O)c(O)c1OC	–	> 100	–	> 100	–	> 100	–	> 100	–	–	–	> 100	–	> 100	–	> 100	–	> 100	–	> 100
Cc1c(OC(C)C(=O)O)ccc2c(-c3ccccc3)cc(=O)oc12 (stereo not given)	–	> 100	–	> 100	–	–	–	> 100	–	> 100	–	> 100	–	> 100	–	> 100	–	–	–	> 100
CC(=O)Nc1ccc(-c2cc(C(=O)O)c3cc4ccccc4cc3n2)cc1	–	> 100	–	> 100	–	> 100	–	> 100	–	> 100	–	> 100	–	–	–	> 100	–	> 100	–	> 100
Clc1ccc(-c2cn3ccnc3c(-c3ccc(Cl)cc3)n2)cc1	29.5	> 100	–	4.02	3.38	30.9	82.8	> 100	21	> 100	13.7	84.7	–	–	10.1	> 100	32.9	> 100	> 100	> 100
